Data on 1 molecule can be found in article PMC5218480 (PLoS ONE, 2017).

For the test, the system named is MV-4-11 cells. Put plainly: Gene expression microarray analysis (Affymetrix PrimeView) and GSEA. The format is cell-based, human. Also noted: RFU PODN (11730768_x_at) / Fold change /veh PODN (11730768_x_at) / RFU LINC00158 (11744669_a_at) / Fold change /veh LINC00158 (11744669_a_at) / RFU DUSP10 (11751237_a_at) / Fold change /veh DUSP10 (11751237_a_at) / RFU ID3 (11757404_x_at) / Fold change /veh ID3 (11757404_x_at) / RFU PLEKHG5 (11737974_s_at) / Fold change /veh PLEKHG5 (11737974_s_at) / RFU LRRC4B (11730491_at) / Fold change /veh LRRC4B (11730491_at) / RFU GIMAP4 (11747438_a_at) / Fold change /veh GIMAP4 (11747438_a_at) / RFU KRT8 (11758183_x_at) / Fold change /veh KRT8 (11758183_x_at) / RFU CNN1 (11734310_a_at) / Fold change /veh CNN1 (11734310_a_at) / RFU VPS37D (11726825_at) / Fold change /veh VPS37D (11726825_at) / RFU C10orf10 (11716522_x_at) / Fold change /veh C10orf10 (11716522_x_at) / RFU KIR2DL2 /// KIR2DL4 /// KIR2DL5A /// KIR2DL5B /// KIR2DS1 /// KIR2DS2 /// KIR2DS3 /// KIR2DS4 /// KIR3DL3 /// KIR3DL3 /// KIR3DS1 (11738374_at) / Fold change /veh KIR2DL2 /// KIR2DL4 /// KIR2DL5A /// KIR2DL5B /// KIR2DS1 /// KIR2DS2 /// KIR2DS3 /// KIR2DS4 /// KIR3DL3 /// KIR3DL3 /// KIR3DS1 (11738374_at) / RFU C1QL1 (11718748_at) / Fold change /veh C1QL1 (11718748_at) / RFU TMPRSS4 (11747572_a_at) / Fold change /veh TMPRSS4 (11747572_a_at) / RFU HAMP (11756126_x_at) / Fold change /veh HAMP (11756126_x_at) / RFU RNFT2 (11725882_a_at) / Fold change /veh RNFT2 (11725882_a_at) / RFU NR4A2 (11747474_a_at) / Fold change /veh NR4A2 (11747474_a_at) / RFU ABCC12 (11746883_a_at) / Fold change /veh ABCC12 (11746883_a_at) / RFU TMEM136 (11760407_x_at) / Fold change /veh TMEM136 (11760407_x_at) / RFU CLDN22 /// WWC2 (11732394_at) / Fold change /veh CLDN22 /// WWC2 (11732394_at) / RFU HLA-DPB1 (11760878_x_at) / Fold change /veh HLA-DPB1 (11760878_x_at) / RFU SPINT1 (11716480_a_at) / Fold change /veh SPINT1 (11716480_a_at) / RFU GAP43 (11754022_s_at) / Fold change /veh GAP43 (11754022_s_at) / RFU A4GNT (11735810_at) / Fold change /veh A4GNT (11735810_at) / RFU PRB3 (11715151_x_at) / Fold change /veh PRB3 (11715151_x_at) / RFU TUBB4B (11761932_at) / Fold change /veh TUBB4B (11761932_at) / RFU CAPN14 (11732068_a_at) / Fold change /veh CAPN14 (11732068_a_at) / RFU TMCC2 (11721928_a_at) / Fold change /veh TMCC2 (11721928_a_at) / RFU IRGQ (11745062_a_at) / Fold change /veh IRGQ (11745062_a_at) / RFU FAM174B (11720279_a_at) / Fold change /veh FAM174B (11720279_a_at) / RFU TMPRSS4 (11748680_a_at) / Fold change /veh TMPRSS4 (11748680_a_at) / RFU FAM212B (11763350_a_at) / Fold change /veh FAM212B (11763350_a_at) / RFU PLEKHG5 (11743358_a_at) / Fold change /veh PLEKHG5 (11743358_a_at) / RFU ZSCAN30 (11745921_a_at) / Fold change /veh ZSCAN30 (11745921_a_at) / RFU CMKLR1 (11741424_a_at) / Fold change /veh CMKLR1 (11741424_a_at) / RFU LOC101060620 /// MAPK8IP1 (11723275_at) / Fold change /veh LOC101060620 /// MAPK8IP1 (11723275_at) / RFU SPTSSB (11747773_x_at) / Fold change /veh SPTSSB (11747773_x_at) / RFU PRSS12 (11739890_at) / Fold change /veh PRSS12 (11739890_at) / RFU BIN1 (11741810_x_at) / Fold change /veh BIN1 (11741810_x_at) / RFU WNT11 (11732464_a_at) / Fold change /veh WNT11 (11732464_a_at) / RFU C10orf10 (11716521_a_at) / Fold change /veh C10orf10 (11716521_a_at) / RFU C5orf56 (11738089_at) / Fold change /veh C5orf56 (11738089_at) / RFU CYB561 (11721691_x_at) / Fold change /veh CYB561 (11721691_x_at) / RFU ANKRD19P (11752326_a_at) / Fold change /veh ANKRD19P (11752326_a_at) / RFU OR2T12 /// OR2T33 /// OR2T8 (11738714_s_at) / Fold change /veh OR2T12 /// OR2T33 /// OR2T8 (11738714_s_at) / RFU VCAN (11748164_a_at) / Fold change /veh VCAN (11748164_a_at) / RFU JSRP1 (11732532_at) / Fold change /veh JSRP1 (11732532_at) / RFU KRTAP10-11 (11738290_x_at) / Fold change /veh KRTAP10-11 (11738290_x_at) / RFU MYO3A (11730013_a_at) / Fold change /veh MYO3A (11730013_a_at) / RFU EBF3 (11725865_a_at) / Fold change /veh EBF3 (11725865_a_at) / RFU CAMK2N1 (11719241_x_at) / Fold change /veh CAMK2N1 (11719241_x_at) / RFU C5orf56 (11738088_a_at) / Fold change /veh C5orf56 (11738088_a_at) / RFU OLFML3 (11715873_a_at) / Fold change /veh OLFML3 (11715873_a_at) / RFU LOC100653217 /// NTM (11731650_a_at) / Fold change /veh LOC100653217 /// NTM (11731650_a_at) / RFU MAPK11 (11762145_a_at) / Fold change /veh MAPK11 (11762145_a_at) / RFU FIZ1 (11724087_x_at) / Fold change /veh FIZ1 (11724087_x_at) / RFU OASL (11726364_x_at) / Fold change /veh OASL (11726364_x_at) / RFU SOX15 (11748057_x_at) / Fold change /veh SOX15 (11748057_x_at) / RFU CD79A (11719716_a_at) / Fold change /veh CD79A (11719716_a_at) / RFU HIST1H1D (11736915_at) / Fold change /veh HIST1H1D (11736915_at) / RFU CASKIN2 (11723855_a_at) / Fold change /veh CASKIN2 (11723855_a_at) / RFU LOC730098 (11760151_x_at) / Fold change /veh LOC730098 (11760151_x_at) / RFU OR4N2 (11742367_at) / Fold change /veh OR4N2 (11742367_at) / RFU PRRT2 (11749266_a_at) / Fold change /veh PRRT2 (11749266_a_at) / RFU SNX32 (11753110_a_at) / Fold change /veh SNX32 (11753110_a_at) / RFU CDHR5 (11726645_a_at) / Fold change /veh CDHR5 (11726645_a_at) / RFU RCAN1 (11760418_a_at) / Fold change /veh RCAN1 (11760418_a_at) / RFU FAM167A (11723789_a_at) / Fold change /veh FAM167A (11723789_a_at) / RFU FAM26E (11764081_at) / Fold change /veh FAM26E (11764081_at) / RFU ISYNA1 (11749810_s_at) / Fold change /veh ISYNA1 (11749810_s_at) / RFU ACY1 (11761880_at) / Fold change /veh ACY1 (11761880_at) / RFU 11764098_at / Fold change /veh 11764098_at / RFU SAMD14 (11745864_x_at) / Fold change /veh SAMD14 (11745864_x_at) / RFU NPB (11741838_a_at) / Fold change /veh NPB (11741838_a_at) / RFU TMPRSS6 (11731388_a_at) / Fold change /veh TMPRSS6 (11731388_a_at) / RFU KRTAP10-2 (11738614_at) / Fold change /veh KRTAP10-2 (11738614_at) / RFU ARHGAP8 /// PRR5-ARHGAP8 (11727945_x_at) / Fold change /veh ARHGAP8 /// PRR5-ARHGAP8 (11727945_x_at) / RFU KRTAP5-7 /// NADSYN1 (11734609_at) / Fold change /veh KRTAP5-7 /// NADSYN1 (11734609_at) / RFU RASL12 (11751679_a_at) / Fold change /veh RASL12 (11751679_a_at) / RFU CDKN2B (11736163_a_at) / Fold change /veh CDKN2B (11736163_a_at) / RFU PRF1 (11729649_at) / Fold change /veh PRF1 (11729649_at) / RFU, ZNF638 /// ZNF638-IT1 / Fold change vs veh, ZNF638 /// ZNF638-IT1 / RFU, PANK3 / Fold change vs veh, PANK3 / RFU, SH3YL1 / Fold change vs veh, SH3YL1 / RFU, ZEB2 / Fold change vs veh, ZEB2 / RFU, NRIP1 / Fold change vs veh, NRIP1 / RFU, PTTG1IP / Fold change vs veh, PTTG1IP / RFU, CAPN2 / Fold change vs veh, CAPN2 / RFU, MED14 / Fold change vs veh, MED14 / RFU, SNORA58 / Fold change vs veh, SNORA58 / RFU, C1orf63 / Fold change vs veh, C1orf63 / RFU, LRRFIP1 / Fold change vs veh, LRRFIP1 / RFU, NDUFAF7 / Fold change vs veh, NDUFAF7 / RFU, SLC12A2 / Fold change vs veh, SLC12A2 / RFU, IBTK / Fold change vs veh, IBTK / RFU, ESF1 / Fold change vs veh, ESF1 / Fold change vs veh, TMEM50B / RFU, TAOK1 / Fold change vs veh, TAOK1 / RFU, ACBD3 / Fold change vs veh, ACBD3 / RFU, TMA16 / Fold change vs veh, TMA16 / RFU, RWDD3 / Fold change vs veh, RWDD3 / RFU, BCAT1 / Fold change vs veh, BCAT1 / RFU, EDEM3 / Fold change vs veh, EDEM3 / RFU, TMEM33 / Fold change vs veh, TMEM33 / RFU, WDR75 / Fold change vs veh, WDR75 / RFU, AHCTF1 / Fold change vs veh, AHCTF1 / RFU, TFRC / Fold change vs veh, TFRC / RFU, ZDHHC17 / Fold change vs veh, ZDHHC17 / RFU, NOM1 / Fold change vs veh, NOM1 / RFU, ARL8B / Fold change vs veh, ARL8B / RFU, ZBTB11 / Fold change vs veh, ZBTB11 / RFU, TAMM41 / Fold change vs veh, TAMM41 / RFU, KIAA1704 /// LOC100996395 / Fold change vs veh, KIAA1704 /// LOC100996395 / RFU, ING1 / Fold change vs veh, ING1 / RFU, TRMT61B / Fold change vs veh, TRMT61B / RFU, FUBP3 / Fold change vs veh, FUBP3 / RFU, TP53 / Fold change vs veh, TP53 / RFU, TNKS2 / Fold change vs veh, TNKS2 / RFU, ZFP14 / Fold change vs veh, ZFP14 / RFU, ACTR2 / Fold change vs veh, ACTR2 / RFU, PPP3R1 / Fold change vs veh, PPP3R1 / RFU, PIK3R1 / Fold change vs veh, PIK3R1 / RFU, HNRNPA1 / Fold change vs veh, HNRNPA1 / RFU, RNF170 / Fold change vs veh, RNF170 / RFU, ZNF28 / Fold change vs veh, ZNF28 / RFU, RNGTT / Fold change vs veh, RNGTT / RFU, OGT / Fold change vs veh, OGT / RFU, BRD1 / Fold change vs veh, BRD1 / RFU, MARS / Fold change vs veh, MARS / RFU, ZNF655 / Fold change vs veh, ZNF655 / RFU, FAHD1 / Fold change vs veh, FAHD1 / RFU, BDP1 / Fold change vs veh, BDP1 / RFU, LRRCC1 / Fold change vs veh, LRRCC1 / RFU, ARID1A / Fold change vs veh, ARID1A / RFU, ZNF146 / Fold change vs veh, ZNF146 / RFU, ZNF330 / Fold change vs veh, ZNF330 / RFU, GPN3 / Fold change vs veh, GPN3 / RFU, C9orf123 / Fold change vs veh, C9orf123 / RFU, N4BP2L2 / Fold change vs veh, N4BP2L2 / RFU, ARFIP1 / Fold change vs veh, ARFIP1 / RFU, FAM179B / Fold change vs veh, FAM179B / RFU, BCL10 / Fold change vs veh, BCL10 / RFU, UHRF1BP1L / Fold change vs veh, UHRF1BP1L / RFU, BET1 / Fold change vs veh, BET1 / RFU, CNOT2 / Fold change vs veh, CNOT2 / RFU, ZNF268 / Fold change vs veh, ZNF268 / Fold change vs veh, ZNF507 / RFU, DGCR2 / Fold change vs veh, DGCR2 / RFU, WDSUB1 / Fold change vs veh, WDSUB1 / Fold change vs veh, HSP90B1 /// MIR3652 / RFU, ADSS / Fold change vs veh, ADSS / RFU, GK / Fold change vs veh, GK / RFU, ZNF148 / Fold change vs veh, ZNF148 / RFU, TAF9 / Fold change vs veh, TAF9 / RFU, SLC1A5 / Fold change vs veh, SLC1A5 / RFU, SLMO2 / Fold change vs veh, SLMO2 / RFU, ABCC4 / Fold change vs veh, ABCC4 / RFU, LOC101060439 /// RAP1B / Fold change vs veh, LOC101060439 /// RAP1B / RFU, RFX7 / Fold change vs veh, RFX7 / RFU, GTPBP10 / Fold change vs veh, GTPBP10 / RFU, CNEP1R1 / Fold change vs veh, CNEP1R1 / RFU, BIVM-ERCC5 /// ERCC5 / Fold change vs veh, BIVM-ERCC5 /// ERCC5 / RFU, ILF3 / Fold change vs veh, ILF3 / RFU 11762660_at / Fold change /veh 11762660_at / RFU VCAN (11757783_s_at) / Fold change /veh VCAN (11757783_s_at) / RFU DDX43 (11728927_at) / Fold change /veh DDX43 (11728927_at) / RFU KRT8 (11758188_x_at) / Fold change /veh KRT8 (11758188_x_at) / RFU NKD1 (11759106_at) / Fold change /veh NKD1 (11759106_at) / RFU SRD5A1 (11742802_a_at) / Fold change /veh SRD5A1 (11742802_a_at) / RFU TPSAB1 /// TPSB2 (11721975_s_at) / Fold change /veh TPSAB1 /// TPSB2 (11721975_s_at) / RFU GSTM3 (11746129_a_at) / Fold change /veh GSTM3 (11746129_a_at) / RFU IL23R (11737362_x_at) / Fold change /veh IL23R (11737362_x_at) / RFU TMEM51 (11727254_a_at) / Fold change /veh TMEM51 (11727254_a_at) / RFU PIWIL2 (11732686_x_at) / Fold change /veh PIWIL2 (11732686_x_at) / RFU ORM1 (11744905_x_at) / Fold change /veh ORM1 (11744905_x_at) / RFU CCDC152 (11743942_at) / Fold change /veh CCDC152 (11743942_at) / RFU ECM1 (11717891_a_at) / Fold change /veh ECM1 (11717891_a_at) / RFU IL23R (11748794_a_at) / Fold change /veh IL23R (11748794_a_at) / RFU TNFAIP8L3 (11732012_x_at) / Fold change /veh TNFAIP8L3 (11732012_x_at) / RFU MBOAT4 (11741988_at) / Fold change /veh MBOAT4 (11741988_at) / RFU 11764193_at / Fold change /veh 11764193_at / RFU TMEM53 (11763286_at) / Fold change /veh TMEM53 (11763286_at) / RFU MAGEB2 (11727129_at) / Fold change /veh MAGEB2 (11727129_at) / RFU TMEM200A (11744735_a_at) / Fold change /veh TMEM200A (11744735_a_at) / RFU CCDC152 (11751479_a_at) / Fold change /veh CCDC152 (11751479_a_at) / RFU FAM211A (11726209_a_at) / Fold change /veh FAM211A (11726209_a_at) / RFU RGS16 (11746705_a_at) / Fold change /veh RGS16 (11746705_a_at) / RFU VCAN (11755009_s_at) / Fold change /veh VCAN (11755009_s_at) / RFU RHOB (11743442_s_at) / Fold change /veh RHOB (11743442_s_at) / RFU RGS16 (11720943_a_at) / Fold change /veh RGS16 (11720943_a_at) / RFU RGS16 (11720944_at) / Fold change /veh RGS16 (11720944_at) / RFU, VPS4B / Fold change vs veh, VPS4B / RFU, CREB1 / Fold change vs veh, CREB1 / RFU, DNAJC13 / Fold change vs veh, DNAJC13 / RFU, GNAQ / Fold change vs veh, GNAQ / RFU, CDK5R1 / Fold change vs veh, CDK5R1 / RFU, ZRANB3 / Fold change vs veh, ZRANB3 / RFU, CUL4A / Fold change vs veh, CUL4A / RFU, CCNY / Fold change vs veh, CCNY / RFU, UFL1 / Fold change vs veh, UFL1 / RFU, COG3 / Fold change vs veh, COG3 / RFU, DIAPH2 / Fold change vs veh, DIAPH2 / RFU, SKA2 / Fold change vs veh, SKA2 / RFU, AFF3 / Fold change vs veh, AFF3 / RFU, LMF1 / Fold change vs veh, LMF1 / RFU, IPO11 / Fold change vs veh, IPO11 / RFU, DFFB / Fold change vs veh, DFFB / RFU, FOXP1 / Fold change vs veh, FOXP1 / RFU, CARD8 / Fold change vs veh, CARD8 / RFU, STRN3 / Fold change vs veh, STRN3 / RFU, ADK / Fold change vs veh, ADK / RFU, RASSF2 / Fold change vs veh, RASSF2 / RFU, WIPF1 / Fold change vs veh, WIPF1 / RFU, LARP1B / Fold change vs veh, LARP1B / RFU, RASA1 / Fold change vs veh, RASA1 / RFU, RB1 / Fold change vs veh, RB1 / RFU, PPFIA1 / Fold change vs veh, PPFIA1 / RFU, MAT2A / Fold change vs veh, MAT2A / RFU, CCT5 / Fold change vs veh, CCT5 / RFU, WDR92 / Fold change vs veh, WDR92 / RFU, CUX1 / Fold change vs veh, CUX1 / RFU, TTC7A / Fold change vs veh, TTC7A / RFU, TMEM135 / Fold change vs veh, TMEM135 / RFU, DEPTOR / Fold change vs veh, DEPTOR / RFU, CPM / Fold change vs veh, CPM / RFU, DNAJB6 / Fold change vs veh, DNAJB6 / RFU, CACNA2D3 / Fold change vs veh, CACNA2D3 / RFU, DTX4 / Fold change vs veh, DTX4 / RFU, TFCP2 / Fold change vs veh, TFCP2 / RFU, GMCL1 /// GMCL1P1 / Fold change vs veh, GMCL1 /// GMCL1P1 / RFU, AEBP2 / Fold change vs veh, AEBP2 / RFU, SNHG1 /// SNORD22 /// SNORD25 /// SNORD26 /// SNORD27 /// SNORD28 /// SNORD29 /// SNORD31 / Fold change vs veh, SNHG1 /// SNORD22 /// SNORD25 /// SNORD26 /// SNORD27 /// SNORD28 /// SNORD29 /// SNORD31 / Fold change (Aza/veh), C12orf56 (ProbeSet 11735607_a_at) / Fold change (ACY-1035/veh), C12orf56 (ProbeSet 11735607_a_at) / Fold change (Aza/veh), FGFR1OP (ProbeSet 11751329_s_at) / Fold change (ACY-1035/veh), FGFR1OP (ProbeSet 11751329_s_at) / Fold change (Aza/veh), VPS36 (ProbeSet 11739960_a_at) / Fold change (ACY-1035/veh), VPS36 (ProbeSet 11739960_a_at) / RFU SYPL1 (11715823_x_at) / Fold change /veh SYPL1 (11715823_x_at) / RFU IGFBP7 (11715501_s_at) / Fold change /veh IGFBP7 (11715501_s_at) / RFU REEP3 (11722064_at) / Fold change /veh REEP3 (11722064_at) / RFU IGLL1 (11728026_x_at) / Fold change /veh IGLL1 (11728026_x_at): dose or concentration left out as unconfirmed. Particulars: ProbeSet 11753234_a_at; LIST B.

With `Nc1ncn([C@@H]2O[C@H](CO)[C@@H](O)[C@H]2O)c(=O)n1` [azacitidine], the “Fold change vs veh, TAMM41” value amounted to 0.86.
